In ChEMBL document CHEMBL3351804, “Development of 2-aryl substituted quinazolin-4(3H)-one, pyrido[4,3-d]pyrimidin-4(3H)-one and pyrido[2,3-d]pyrimidin-4(3H)-one derivatives as microsomal prostaglandin E(2) synthase-1 inhibitors” (Bioorg Med Chem Lett, 2014):

Experiments:
[1] = target: T1, Prostaglandin E synthase (Homo sapiens, UniProt O14684); experiment: Inhibition of human recombinant mPGES-1 expressed in CHO cells using PGH2 as substrate incubated for 10 mins prior to substrate addition measured after 1 min
T1 sequence (O14684 whole entry): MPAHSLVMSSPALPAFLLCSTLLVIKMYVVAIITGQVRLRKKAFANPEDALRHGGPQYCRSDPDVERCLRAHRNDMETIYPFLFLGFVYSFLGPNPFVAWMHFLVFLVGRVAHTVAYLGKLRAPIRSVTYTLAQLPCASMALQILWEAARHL

[2] = target: Prostaglandin G/H synthase 1 (Homo sapiens) (UniProt P23219); experiment: Inhibition of COX1 in human U937 cells at 10 uM; type: cell-based; conditions: U-937
[3] = target: Hematopoietic prostaglandin D synthase (Homo sapiens) (UniProt O60760); experiment: Inhibition of recombinant PGDS (unknown origin) at 10 uM
[4] = target: T2, Thromboxane-A synthase (Homo sapiens) (UniProt P24557); experiment: Inhibition of recombinant TXAS (unknown origin) at 10 uM
T2 sequence (whole entry): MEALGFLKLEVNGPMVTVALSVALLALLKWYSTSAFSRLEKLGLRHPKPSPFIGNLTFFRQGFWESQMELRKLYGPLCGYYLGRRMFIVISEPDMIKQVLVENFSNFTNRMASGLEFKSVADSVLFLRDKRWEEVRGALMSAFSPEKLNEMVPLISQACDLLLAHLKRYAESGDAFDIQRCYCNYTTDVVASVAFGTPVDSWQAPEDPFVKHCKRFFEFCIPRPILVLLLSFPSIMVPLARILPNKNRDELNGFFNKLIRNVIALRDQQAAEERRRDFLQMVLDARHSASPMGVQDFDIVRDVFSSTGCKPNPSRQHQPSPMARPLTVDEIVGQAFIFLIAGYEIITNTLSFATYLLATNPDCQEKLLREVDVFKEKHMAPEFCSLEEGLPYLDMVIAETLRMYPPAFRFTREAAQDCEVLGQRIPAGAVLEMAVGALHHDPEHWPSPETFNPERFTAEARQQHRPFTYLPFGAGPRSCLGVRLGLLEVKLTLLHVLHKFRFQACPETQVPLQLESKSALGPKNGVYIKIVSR

[5] = Inhibition of guinea pig recombinant mPGES-1; design: species or system Cavia porcellus
[6] = AUClast in Sprague-Dawley rat at 10 mg/kg, po; type: ADME, organism-based; design: time 0 - last, dose 10 mg/kg, route oral; conditions: plasma
[7] = Stability in rat liver microsomes assessed as compound remaining after 60 mins; type: ADME; conditions: read-out: Stability

Sequence of Hematopoietic prostaglandin D synthase (Homo sapiens) (O60760 whole entry): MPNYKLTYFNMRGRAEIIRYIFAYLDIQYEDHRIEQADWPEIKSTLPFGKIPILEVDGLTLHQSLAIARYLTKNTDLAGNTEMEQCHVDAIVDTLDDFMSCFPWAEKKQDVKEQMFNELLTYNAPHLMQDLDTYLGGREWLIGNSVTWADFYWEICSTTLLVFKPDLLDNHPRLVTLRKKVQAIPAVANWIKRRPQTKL
Sequence of Prostaglandin G/H synthase 1 (Homo sapiens) (P23219 whole entry): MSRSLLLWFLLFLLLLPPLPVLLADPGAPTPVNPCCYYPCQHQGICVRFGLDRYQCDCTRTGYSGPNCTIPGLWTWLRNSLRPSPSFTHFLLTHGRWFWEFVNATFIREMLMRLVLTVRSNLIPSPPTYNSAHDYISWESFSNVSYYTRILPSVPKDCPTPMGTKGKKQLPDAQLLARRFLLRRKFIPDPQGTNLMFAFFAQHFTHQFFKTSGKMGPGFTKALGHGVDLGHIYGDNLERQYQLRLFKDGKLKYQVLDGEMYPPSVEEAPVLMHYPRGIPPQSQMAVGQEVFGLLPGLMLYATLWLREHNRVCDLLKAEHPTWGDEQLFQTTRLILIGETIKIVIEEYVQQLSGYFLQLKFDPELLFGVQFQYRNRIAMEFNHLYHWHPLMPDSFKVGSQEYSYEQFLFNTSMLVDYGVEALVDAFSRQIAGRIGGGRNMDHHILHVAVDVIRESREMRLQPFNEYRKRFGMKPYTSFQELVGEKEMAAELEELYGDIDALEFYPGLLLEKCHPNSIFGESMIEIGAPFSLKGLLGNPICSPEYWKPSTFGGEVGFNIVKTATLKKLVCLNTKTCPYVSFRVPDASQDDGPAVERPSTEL

IC50 [1]: 5 nM | inhibition [2]: 2.74% | inhibition [3]: 18.7% | inhibition [4]: 10.5% | IC50 [5]: 12 nM | AUC(0-t) [6]: 1230 ng·h/mL | remaining at 1 h [7]: 77%
Structure (SMILES): CC(C)C(=O)NCc1ccc(Cl)c(-c2nc3cc(-c4ccc(C(F)(F)F)cc4)ncc3c(=O)[nH]2)c1
